For 26 compounds, LC retention time results are on record in the RepoRT retention time repository (doi:10.1007/s00216-021-03828-0).

Conditions in all cases: stereoisomer not certain
A short description of series [1]: RP, Merck Supelco Ascentis Express C18, 100 × 2.1 mm, 2 µm, 40 °C, 0.2 mL/min, estimated dead time 1.1 min; A: water + 0.1% formic acid, pH 3; B: acetonitrile + 0.1% formic acid, pH 3; gradient (min/%B) 0/5 2/5 17/99.9 20/99.9.
Experiment in series [2]: as above
This is another data set of the same source.

A short description of series [3]: RP, Merck Supelco Ascentis Express C18, 100 × 2.1 mm, 2 µm, 40 °C, 0.4 mL/min, estimated dead time 0.55 min; A: water + 0.1% formic acid, pH 3; B: acetonitrile + 0.1% formic acid, pH 3; gradient (min/%B) 0/5 2/5 17/99.9 20/99.9.
Series [4] is described as follows: RP, Merck Supelco Ascentis Express C18, 100 × 2.1 mm, 2 µm, 40 °C, 0.25 mL/min, estimated dead time 0.88 min; A: water + 0.1% formic acid, pH 3; B: acetonitrile + 0.1% formic acid, pH 3; gradient (min/%B) 0/5 2/5 17/99.9 20/99.9.
Series [5] is described as follows: RP, Merck Supelco Ascentis Express C18, 100 × 2.1 mm, 2 µm, 39 °C, 0.3 mL/min, estimated dead time 0.73 min; A: water + 0.1% formic acid, pH 3; B: acetonitrile + 0.1% formic acid, pH 3; gradient (min/%B) 0/5 2/5 17/99.9 20/99.9.
The nature of series [6]: RP, Merck Supelco Ascentis Express C18, 100 × 2.1 mm, 2 µm, 40 °C, 0.35 mL/min, estimated dead time 0.63 min; A: water + 0.1% formic acid, pH 3; B: acetonitrile + 0.1% formic acid, pH 3; gradient (min/%B) 0/5 2/5 17/99.9 20/99.9.
Series [7] is described as follows: RP, Merck Supelco Ascentis Express C18, 100 × 2.1 mm, 2 µm, 40 °C, 0.4 mL/min, estimated dead time 0.55 min; A: water + 0.1% formic acid, pH 3; B: acetonitrile + 0.1% formic acid, pH 3; gradient (min/%B) 0/5 2/5 17/99.9 20/99.9. The source holds these as a separate data set.

As for `Cn1c(=O)[nH]c2ncn(C)c2c1=O` [PARAXANTHINE], the LC retention time in series [1] was 3.96 min; in series [2], 3.98 min; in series [3], 2.16 min; in series [4] it was 3.33 min; in series [5], 2.81 min; in series [6], 2.47 min. For the same compound, the LC retention time in series [7] was 2.15 min.
Consider `CCCCCCCCCCCCCCCCCC(=O)[O-]` [STEARATE], for which the LC retention time in series [2] was 19.1 min; in series [3] it was 16.9 min; in series [4] it was 18.3 min; in series [6] it was 17.2 min; in series [7], 16.9 min.
Turning to `C[Se]CCC(N)C(=O)O` (centres undefined) [SELENOMETHIONINE], the LC retention time in series [1] is 1.37 min; in series [2], 1.37 min; in series [4], 1.07 min; in series [5], 0.887 min; in series [6], 0.763 min; in series [7] it was 0.683 min.
For `NC(Cc1c[nH]c2ccc(O)cc12)C(=O)O` (centres undefined) [5-HYDROXYTRYPTOPHAN], the LC retention time in series [1] was 1.71 min; in series [2], 1.75 min; in series [3] it was 0.853 min; in series [4], 1.35 min; in series [5], 1.1 min; in series [6] it was 0.993 min. In addition, the LC retention time in series [7] was 0.81 min.
`O=C(O)CCCC(=O)C(=O)O` [OXOADIPATE]: the LC retention time in series [2] was 1.48 min; in series [3], 0.667 min; in series [6], 0.833 min; in series [7], 0.707 min.
With `CC1NC(=O)NC1CCCCCC(=O)O` (centres undefined) [DETHIOBIOTIN], the LC retention time was 5.92 min in series [1]; 5.96 min in series [2]; 4.58 min in series [3]; 5.43 min in series [4]; 5.15 min in series [5]; 4.81 min in series [6]. The LC retention time in series [7] was 4.54 min.
For `CCCCCCCCCCCCCCCCC(=O)O` [HEPTADECANOATE], the LC retention time in series [2] is 18.5 min; in series [3], 16.4 min; in series [4] it was 17.7 min; in series [6] it was 16.7 min; in series [7], 16.3 min.
For `CC(CCC(=O)O)C(=O)O` (centres undefined) [2-METHYLGLUTARATE] the same measures were 3.99 min, 2.05 min, 3.27 min, 2.33 min and 2.02 min.
Regarding `CC(O)(CC(=O)O)C(=O)O` (centres undefined) [CITRAMALATE], the LC retention time is 1.49 min in series [2], 0.76 min in series [3], 0.86 min in series [6] and 0.717 min in series [7].
Take `COC(=O)Cc1c[nH]c2ccccc12` [INDOLE-3-METHYL ACETATE]: the LC retention time in series [2] was 10.2 min; in series [3], 7.46 min; in series [4], 8.62 min; in series [5], 8.12 min; in series [6], 8.75 min; in series [7], 8.4 min.
In the case of `CC(=CC(=O)O)C(=O)O` [2-METHYLMALEATE], the LC retention time was 2.46 min in series [1]; 2.44 min in series [2]; 0.99 min in series [3]; 1.35 min in series [6]; 1.16 min in series [7].
Consider `O=C(O)CCCCC(=O)O` [ADIPATE], for which the LC retention time in series [2] was 3.99 min; in series [3], 2.04 min; in series [4], 3.27 min; in series [6] it was 2.33 min; in series [7] it was 2.02 min.
The matching figures for `CC(C(=O)O)C(=O)O` [METHYLMALONATE]: 1.71 min, 0.863 min, 1.37 min, 0.957 min and 0.807 min.
`C=C(CC(=O)O)C(=O)O` [ITACONATE]: the LC retention time in series [1] was 2.46 min; in series [2], 2.44 min; in series [3] it was 1.21 min; in series [6], 1.35 min; in series [7] it was 1.14 min.
In the case of `CCC=CCC=CCC=CCC=CCC=CCC=CCCC(=O)O` [DOCOSAHEXAENOATE], the LC retention time in series [2] is 16.5 min; in series [3] it was 14.5 min; in series [4], 15.8 min; in series [6], 14.8 min; in series [7], 14.5 min.
As for `OCc1cccc(O)c1` [3-HYDROXYBENZYL ALCOHOL], the LC retention time in series [2] is 3.97 min; in series [6], 2.33 min; in series [7], 2.02 min.
As to `CC(O)(CCO)CC(=O)[O-]` (centres undefined) [MEVALONATE], the LC retention time was 1.57 min in series [1]; 1.55 min in series [2]; 0.72 min in series [3]; 1.2 min in series [4]; 0.863 min in series [6]; 0.73 min in series [7].
`CCC(C)C(=O)C(=O)O` (centres undefined) [3-METHYL-2-OXOVALERATE]: the LC retention time in series [2] is 4.64 min; in series [6], 2.96 min; in series [7], 2.54 min.
Take `O=C(O)Cc1c[nH]c2ccccc12` [INDOLE-3-ACETATE]: the LC retention time in series [1] is 7.21 min; in series [3], 5.6 min; in series [4] it was 6.63 min; in series [5], 6.2 min; in series [6], 5.84 min; in series [7], 5.56 min.
For `NCC(=O)CCC(=O)O` [5-AMINOLEVULINATE], the LC retention time in series [1] was 1.53 min; in series [2], 1.51 min; in series [3], 0.737 min; in series [5] it was 1.01 min; in series [6] it was 0.853 min; in series [7], 0.74 min.
As to `Nc1ccccc1C(=O)O` [ANTHRANILATE], the LC retention time in series [2] was 5.87 min; in series [6], 4.29 min; in series [7] it was 3.93 min.
For the compound `CCCCCCCCCC(C)=O` [2-UNDECANONE], the LC retention time in series [2] was 9.69 min; in series [6], 8.4 min; in series [7], 8.13 min.
On to `OCC(O)c1ccc(O)c(O)c1` (centres undefined) [3,4-DIHYDROXYPHENYLGLYCOL], for which the LC retention time was 1.39 min in series [2], 0.783 min in series [6] and 0.663 min in series [7].
Turning to `O=C([O-])Cc1ccccc1` [PHENYLACETATE], the LC retention time in series [2] is 4.08 min; in series [3], 3.95 min; in series [4], 3.45 min; in series [5], 4.5 min; in series [6] it was 4.56 min; in series [7], 3.93 min.
With `CCCCCCCCC=CCCCCCCCC(=O)O` [ELAIDATE], the LC retention time is 18.1 min in series [1]; 18.2 min in series [2]; 16.1 min in series [3]; 16.8 min in series [5]; 16.4 min in series [6]; 16 min in series [7].
Turning to `CCCCCC=CCC=CCC=CCCCCC(=O)O` [GAMMA-LINOLENATE], the LC retention time in series [2] is 16.2 min; in series [6], 14.5 min; in series [7], 14.1 min.
